The text below walks through data of PubChem BioAssay AID1134 (Emory University Molecular Libraries Screening Center, 2008).

The target in assay [1] is Ubiquitin carboxyl-terminal hydrolase BAP1 (Homo sapiens) (UniProt Q92560). Put plainly: BAP1 versus UCH-L1 deubiquitinase inhibition – biochemical, ubiquitin-rhodamine110-glycine substrate, selectivity assay, dose response (AID 1134). The note with it: recombinant BAP1, ubiquitin-rhodamine110 cleavage fluorescence kinetic.
Assay in assay [2]: as above
The conditions noted are these: recombinant BAP1, ubiquitin-rhodamine110 cleavage fluorescence kinetic; measured here: UCH-L1 counter-screen IC50. In general terms: A counterscreen serves to expose hits that act by an unwanted route or on another target.

The structures appear in SMILES notation.

Ubiquitin carboxyl-terminal hydrolase BAP1 (Homo sapiens), sequence (Q92560 whole entry, looked up): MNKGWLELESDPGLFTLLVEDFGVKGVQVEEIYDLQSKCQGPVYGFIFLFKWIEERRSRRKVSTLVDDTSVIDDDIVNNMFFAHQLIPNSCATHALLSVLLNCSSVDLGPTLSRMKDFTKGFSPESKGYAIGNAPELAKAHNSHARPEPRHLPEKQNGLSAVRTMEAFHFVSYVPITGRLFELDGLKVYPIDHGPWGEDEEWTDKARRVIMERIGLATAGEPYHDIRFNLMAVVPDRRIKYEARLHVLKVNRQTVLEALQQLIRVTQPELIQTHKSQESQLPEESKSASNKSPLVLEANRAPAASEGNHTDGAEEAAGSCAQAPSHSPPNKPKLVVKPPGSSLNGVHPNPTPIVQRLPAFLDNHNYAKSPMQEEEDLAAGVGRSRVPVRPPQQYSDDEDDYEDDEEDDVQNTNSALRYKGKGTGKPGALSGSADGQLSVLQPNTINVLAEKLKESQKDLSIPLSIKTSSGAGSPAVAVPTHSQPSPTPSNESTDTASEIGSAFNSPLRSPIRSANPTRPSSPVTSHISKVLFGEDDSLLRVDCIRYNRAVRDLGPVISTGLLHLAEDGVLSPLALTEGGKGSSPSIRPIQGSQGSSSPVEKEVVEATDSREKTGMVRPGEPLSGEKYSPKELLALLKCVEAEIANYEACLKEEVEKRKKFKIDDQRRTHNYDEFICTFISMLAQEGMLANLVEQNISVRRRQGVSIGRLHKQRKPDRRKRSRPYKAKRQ

The term IC50 denotes the midpoint of a concentration-inhibition curve. `Cc1sc(NC(=O)CSc2nnc(-c3ccc(O)cc3O)o2)c(C#N)c1-c1ccc(F)cc1`: the IC50 in assay [1] is 5.62 µM.

As for `Cc1sc(NC(=O)CSc2nnc(-c3ccncc3)o2)c(C#N)c1-c1ccc(F)cc1`, the 50% inhibitory concentration (IC50) in assay [1] was 8.8 µM.

As to `Cc1sc(NC(=O)CSc2n[nH]c(-c3ccc(O)cc3)n2)c(C#N)c1-c1ccc(F)cc1`, the IC50 in assay [2] is 10.1 µM; in assay [1] it was 2.19 µM.

Regarding `O=C(NCc1ccco1)c1cc2nc(-c3ccc4c(c3)OCO4)cc(C(F)(F)F)n2n1`, the half-maximal inhibitory concentration (IC50) in assay [1] was 15.4 µM.

With `Cc1sc(NC(=O)CSc2nnc(-c3ccc(Cl)cc3)o2)c(C(N)=O)c1-c1ccc(F)cc1`, the concentration for half-maximal inhibition (IC50) in assay [1] was 3.88 µM.

On to `Cc1ccccc1Nc1nnc(SCC(=O)Nc2sc(C)c(-c3ccc(F)cc3)c2C#N)s1`, for which the IC50 in assay [1] was 8.8 µM.

Take `Cc1sc(NC(=O)CSc2nnc(-c3ccc(O)cc3)o2)c(C#N)c1-c1ccc(CC(C)C)cc1`: the IC50 in assay [1] was 4.77 µM.

Consider `Cc1sc(NC(=O)CSc2nccc(-c3ccc(Cl)cc3)n2)c(C#N)c1C`, for which the half-inhibitory concentration (IC50) in assay [1] was 4.82 µM.

Consider `Cc1ccc(-c2c(C)sc(NC(=O)CSc3nnc(-c4ccc(Cl)cc4)o3)c2C#N)cc1C`, for which the IC50 in assay [2] is 7.55 µM; in assay [1] it was 5.19 µM.

Take `Cc1sc(NC(=O)CSc2nnc(N3CCOCC3)o2)c(C#N)c1-c1ccc(F)cc1`: the IC50 in assay [1] was 16.8 µM.

On to `Cc1sc(NC(=O)CSc2nnc(-c3ccc(Br)cc3)o2)c(C#N)c1-c1ccc(F)cc1`, for which the IC50 in assay [2] is 16.9 µM; in assay [1] it was 0.9 µM.

Turning to `Cc1sc(NC(=O)CSc2nnc(-c3ccc(I)cc3)o2)c(C#N)c1-c1ccc(F)cc1`, the IC50 in assay [2] is above 100 µM; in assay [1] it was 2.76 µM.

As for `Cc1ccc(-c2c(C)sc(NC(=O)CSc3nnc(-c4ccc(F)cc4)o3)c2C#N)cc1C`, the half-maximal inhibitory concentration (IC50) in assay [2] was 26 µM; in assay [1] it was 3.95 µM.

As to `Cc1sc(NC(=O)CSc2nnc(-c3ccc(Cl)cc3)o2)c(C#N)c1-c1ccc(F)cc1`, the concentration for half-maximal inhibition (IC50) in assay [2] was 21.2 µM; in assay [1] it was 0.81 µM.

`Cc1sc(NC(=O)CSc2nnc(-c3ccc(Cl)cc3)o2)c(C#N)c1-c1ccc(Cl)cc1Cl`: the IC50 in assay [2] is 13.8 µM; in assay [1], 1.15 µM.

`Cc1sc(NC(=O)CSc2nccc(-c3ccc(Cl)cc3)n2)c(C#N)c1-c1ccc(F)cc1`: the values for the concentration for half-maximal inhibition (IC50) in assay [2] and in assay [1] were 47.6 µM and 1.58 µM, respectively.

Take `Cc1sc(NC(=O)CSc2nnc(Cc3ccc(Cl)cc3)o2)c(C#N)c1-c1ccc(F)cc1`: the IC50 in assay [1] was 6.22 µM.

For `COC(=O)c1c(NC(=O)CSc2nnc(-c3ccc(O)cc3)o2)sc(C)c1-c1ccc(F)cc1`, in assay [1], the IC50 is 6.07 µM.

As for `Cc1sc(NC(=O)CSc2nnc(-c3ccc(Cl)cc3)o2)c(C#N)c1-c1ccccc1`, the IC50 in assay [2] was 13.7 µM; in assay [1], 1.88 µM.

Turning to `Cc1sc(NC(=O)CSc2nnc(-c3cccnc3)o2)c(C#N)c1-c1ccc(F)cc1`, the concentration for half-maximal inhibition (IC50) in assay [1] was 35.4 µM.

For `Cc1sc(NC(=O)CSc2nnc(-c3ccc(O)cc3)o2)c(C#N)c1-c1ccc(Cl)cc1Cl`, in assay [1], the 50% inhibitory concentration (IC50) is 3.7 µM.

Consider `O=C(CSc1nnc(-c2ccc(Cl)cc2)o1)Nc1cc(-c2ccc(F)cc2)[nH]n1`, for which the values for the IC50 in assay [2] and in assay [1] were 51.9 µM and 0.86 µM, respectively.

In the case of `Cc1sc(NC(=O)CSc2nnc(-c3ccc(N)cc3)o2)c(C#N)c1-c1ccc(F)cc1`, in assay [1], the IC50 was 40.1 µM.

Consider `Cc1sc(NC(=O)CSc2nnc(-c3ccc(O)cc3)o2)c(C#N)c1-c1ccc(F)cc1`, for which the 50% inhibitory concentration (IC50) in assay [1] was 15.3 µM.

For `CCOC(=O)c1cnc(SCC(=O)Nc2sc(C)c(C)c2C#N)nc1N`, the IC50 in assay [2] was 44.3 µM; in assay [1] it was 2.54 µM.

With `Cc1sc(NC(=O)CSc2nnc(-c3ccc(Cl)cc3)o2)c(C#N)c1-c1ccc(CC(C)C)cc1`, the half-maximal inhibitory concentration (IC50) was 20.6 µM in assay [2] and 3.73 µM in assay [1].

For the compound `O=C(CSc1nnc(-c2ccc(O)cc2)o1)Nc1cc(-c2ccc(F)cc2)[nH]n1`, the IC50 in assay [1] was 14.4 µM.

Turning to `Cc1sc(NC(=O)CSc2n[nH]c(-c3ccc(O)cc3)n2)c(C#N)c1C`, the IC50 in assay [1] was 31.1 µM.

Regarding `Cc1ccccc1Nc1nnc(SCC(=O)NCc2ccco2)s1`, the IC50 in assay [1] was 17.4 µM.

As to `Cc1sc(NC(=O)CSc2nnc(-c3ccc(Cl)nc3)o2)c(C#N)c1-c1ccc(F)cc1`, the IC50 in assay [2] was 13.6 µM; in assay [1] it was 2.81 µM.

As for `COC(=O)c1c(NC(=O)CSc2nnc(-c3ccc(Cl)cc3)o2)sc(C)c1-c1ccc(F)cc1`, the values for the 50% inhibitory concentration (IC50) in assay [2] and in assay [1] were 23.6 µM and 3.59 µM, respectively.
